What was measured:
HCT116 = test: SRB cytotoxicity assay, HCT116; type: cell-based; details: Homo sapiens, HCT-116; SRB assay, 48 h, mean ± SD; read-out: IC50 Cytotoxicity HCT116
Description: (§1) The cell lines MDA-MB-231 (No. TCHu227), A549 (No. TCHu150), and HepG2 (No. TCHu72) were obtained from the Cell Bank/Stem Cell Bank, Chinese Academy of Sciences (Shanghai, China). The cell lines DLD-1 (No. CC0507) and HCT116 (No. CC0506) were obtained from the Cell Bank of Cellcook Biotech Co., Ltd. (Guangzhou, China). Cell line HL-7702 (No. BNCC338358) was obtained from Bena Culture Collection (Zhengzhou, China).
(§2) The human cancer cell lines MDA-MB-231 (breast adenocarcinoma), DLD-1 (colorectal adenocarcinoma), A549 (lung epithelial carcinoma), HCT116 (colorectal adenocarcinoma), HepG2 (hepatocellular carcinoma), and human hepatocyte HL-7702 were cultured in Dulbecco’s modified eagle medium (DMEM, Biological Industries, Beit Haemek, Israel) containing 10% (v/v) fetal bovine serum (FBS, Biological Industries, Beit Haemek, Israel) at 37 °C in a humidified incubator (ThermoFisher, Carlsbad, CA, USA) with a 5% CO2 atmosphere.

MDA-MB-231 = test: SRB cytotoxicity assay, MDA-MB-231; type: cell-based; details: Homo sapiens, MDA-MB-231; SRB assay, 48 h, mean ± SD; read-out: IC50 Cytotoxicity MDA-MB-231
Description: as §1, §2

A549 = test: SRB cytotoxicity assay, A549; type: cell-based; details: Homo sapiens, A549; SRB assay, 48 h, mean ± SD; read-out: IC50 Cytotoxicity A549
Description: as §1, §2

[1] = SRB cytotoxicity assay, hepatocyte HL-7702; type: cell-based, human; details: HL-7702 hepatocyte cell line; SRB assay, 48 h, human hepatocyte, mean ± SD; read-out: IC50 Cytotoxicity HL-7702
Description: as §1, §2

[2] = system: A549, HCT116, MDA-MB-231, HepG2, DLD-1, HL-7702; test: SRB cytotoxicity assay, panel of five human cancer cell lines and one human hepatocyte cell line; details: tested concentration of 200 μM
Protocol: The cytotoxicities of 1–29 were tested by an SRB assay on a panel of five human cancer cell lines and one human hepatocyte cell line.
The cytotoxic activities of the compounds against cancer cells were examined with a sulforhodamine B (SRB) colorimetric assay. Cells were seeded at a density of 5 × 10^3/well in 96-well plates for 24 h; various concentrations of the tested compounds, dissolved in DMSO and diluted with the complete medium, were added in the wells in triplicate and incubated for 48 h. After that, the cell viability was assessed with the SRB assay as we described before. The IC50 values were determined using the Reed and Muench method and are expressed as the mean ± SD of at least three independent measurements.

DNA Topo I = target: T1, DNA Topo I (Homo sapiens, UniProt P11387); test: Topo I inhibition assay (DNA relaxation assay); type: biochemical; details: for IC50: DNA relaxation assay, pBR322, mean ± SD; for inhibition at 400 µM: read-out: percentage inhibition on Topo I activity; for inhibition at 400 µM / percentage inhibition on Topo I activity: at 400 μM
T1 construct: purchased ThermoFisher, Waltham, MA, USA
T1 sequence (P11387 1-765): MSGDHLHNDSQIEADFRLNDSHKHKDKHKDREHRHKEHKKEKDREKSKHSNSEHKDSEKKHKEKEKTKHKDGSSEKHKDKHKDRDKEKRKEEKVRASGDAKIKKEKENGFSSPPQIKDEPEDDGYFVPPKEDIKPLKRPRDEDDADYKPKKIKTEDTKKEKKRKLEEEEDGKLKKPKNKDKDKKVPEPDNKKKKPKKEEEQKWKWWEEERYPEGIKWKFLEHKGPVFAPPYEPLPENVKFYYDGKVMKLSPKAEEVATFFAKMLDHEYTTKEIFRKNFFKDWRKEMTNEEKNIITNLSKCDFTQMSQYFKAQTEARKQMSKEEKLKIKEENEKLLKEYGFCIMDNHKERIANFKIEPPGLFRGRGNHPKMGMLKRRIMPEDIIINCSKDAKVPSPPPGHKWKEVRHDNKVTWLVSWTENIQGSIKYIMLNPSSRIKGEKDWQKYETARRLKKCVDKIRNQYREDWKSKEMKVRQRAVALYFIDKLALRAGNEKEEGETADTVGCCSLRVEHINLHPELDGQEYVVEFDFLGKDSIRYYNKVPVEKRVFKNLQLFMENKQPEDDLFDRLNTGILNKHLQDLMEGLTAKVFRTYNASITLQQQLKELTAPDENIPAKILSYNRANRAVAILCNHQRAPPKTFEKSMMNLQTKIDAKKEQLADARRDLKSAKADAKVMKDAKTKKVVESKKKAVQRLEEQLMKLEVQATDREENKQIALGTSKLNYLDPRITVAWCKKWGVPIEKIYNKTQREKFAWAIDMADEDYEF
Protocol: The DNA relaxation assay was adopted to investigate the compounds’ inhibitory activities on Topo I. Different concentrations of the compounds, dissolved and diluted in DMSO, were added into the relaxation buffer (50 mM Tris, pH 7.5, 50 mM KCl, 10 mM MgCl2, 0.1 mM EDTA, 0.5 Mm dithiothreitol, and 0.05 mg/mL bovine serum albumin) containing 0.2 U Topo I (ThermoFisher, Waltham, MA, USA) and incubated at room temperature for 10 min. After that, 500 ng supercoiled pBR322 plasmid DNA (ThermoFisher, Waltham, MA, USA) was added and then incubated at 37 °C for another 30 min. Finally, the reactions were stopped with a stopping solution (5% sodium dodecyl sulfate, 0.0025% bromophenol blue, and 25% glycerol), and the mixtures were applied onto 0.8% agarose gel and subjected to electrophoresis for 1.5 h in Tris-Acetate-EDTA buffer. After being stained with GelRed (Biotium, Fremont, CA, USA), the gel was imagined with the imaging system (Biotop, Shanghai, China). […] The band density of the supercoiled DNA was quantified by the ImageJ software (version 1.53a, National Institutes of Health, Bethesda, MD, USA), and the inhibition activity is expressed as the percentage inhibition and calculated by formula: Inhibition % = [(A − B)/(C − B)] × 100%, where A is the band density of the tested samples, B is the band density of the negative control, and C is the band density of the blank control.

HepG2 = test: SRB cytotoxicity assay, HepG2; type: cell-based; details: Homo sapiens, HepG2; SRB assay, 48 h, mean ± SD; read-out: IC50 Cytotoxicity HepG2
Description: as §1, §2

DLD-1 = test: SRB cytotoxicity assay, DLD-1; type: cell-based; details: Homo sapiens, DLD-1; SRB assay, 48 h, mean ± SD; read-out: IC50 Cytotoxicity DLD-1
Description: as §1, §2

DLD-1 cells = test: DNA content analysis (cell cycle, flow cytometry) in DLD-1; type: cell-based, human; details: 24 h; for percentage of cell population in the G2/M phase / percentage of cells in the G1/S (combined) phase: DLD-1, 2 μM
Protocol: Cells were seeded in 6-well plates and allowed to adhere for 24 h at 37 °C. After treatment with different concentrations of the samples for another 24 h, the cells were harvested and washed with PBS, and then, the DNA content analysis was conducted with a cell cycle staining kit (Multi sciences, Hangzhou, China), according to the manufacturer’s instructions. The fluorescence intensity of the cells was measured by flow cytometry (Beckman CytoFlex, Miami, FL, USA).

SMILES	IC50 (HCT116)	IC50 (MDA-MB-231)	IC50 (A549)	IC50 at 48 h [1]	cytotoxicity in all cell lines [2]	IC50 (DNA Topo I)	inhibition at 400 µM (DNA Topo I)	IC50 (HepG2)	IC50 (DLD-1)	percentage of cells in the G1/S phase (DLD-1 cells; DLD-1, 0.5 μM)	percentage of cells in the G1/S phase (DLD-1 cells; DLD-1, 1 μM)	percentage of cell population in the G2/M phase (DLD-1 cells)	percentage of cells in the G1/S (combined) phase (DLD-1 cells)	percentage inhibition on Topo I activity (DNA Topo I)
O=c1c(O[C@@H]2O[C@H](CO)[C@H](O)[C@H](O)[C@H]2O)c(-c2ccc(O)cc2)oc2cc(O)cc(O)c12 [Compound 11]	> 200 µM	> 200 µM	> 200 µM	> 200 µM	no cytotoxicity	> 400 µM	28.6%	> 200 µM	> 200 µM					
COc1cc(-c2oc3cc(O)c(OC)c(O)c3c(=O)c2OC)ccc1O [Compound 7]	0.43 ± 0.03 µM	81.6 ± 7.43 µM	0.86 ± 0.03 µM	11.4 ± 4.42 µM		224 ± 27.2 µM		28.4 ± 13.1 µM	0.85 ± 0.02 µM	81.16%	86.07%	75.75%	24.26%	
COc1ccc(-c2oc3c(O)c(OC)c(O)cc3c(=O)c2OC)cc1O [Compound 6]	0.59 ± 0.1 µM	> 200 µM	3.09 ± 0.28 µM	23.9 ± 5.73 µM		239 ± 31.4 µM		34.6 ± 8.01 µM	1.58 ± 0.07 µM	82.61%	88.65%	76.49%	22.91%	
COc1ccc(-c2oc3c(O)c(OC)c(O[C@@H]4O[C@H](CO)[C@@H](O)[C@H](O)[C@H]4O)cc3c(=O)c2OC)cc1O [Compound 9]	87.7 ± 15.3 µM	> 200 µM	135 ± 32.3 µM	126 ± 7.08 µM		> 400 µM		> 200 µM	50.5 ± 0.31 µM					no inhibition
CC(=O)OC[C@H]1O[C@@H](Oc2ccc3c(c2O)O/C(=C\c2ccc(O)c(O)c2)C3=O)[C@H](O)[C@@H](O)[C@@H]1O [Compound 19]	> 200 µM	> 200 µM	> 200 µM	> 200 µM		47.5 ± 15.3 µM		> 200 µM	> 200 µM					
COc1cc(-c2oc3cc(O)c(OC)c(O)c3c(=O)c2O)ccc1O [Compound 8]	> 200 µM	> 200 µM	178 ± 4.38 µM	> 200 µM		190 ± 22.1 µM		> 200 µM	187 ± 48.6 µM					
CC#CC#CC#CC#CCCC(CO)O[C@@H]1O[C@H](CO)[C@@H](O)[C@H](O)[C@H]1O (stereo partly shown) [Compound 27]	112 ± 6.59 µM	164 ± 11.7 µM	188 ± 14.9 µM	> 200 µM		> 400 µM		> 200 µM	144 ± 7.36 µM					
COc1ccc(-c2oc3cc(O[C@@H]4O[C@H](CO)[C@@H](O)[C@H](O)[C@H]4O)c(OC)c(O)c3c(=O)c2OC)cc1O [Compound 14]	> 200 µM	> 200 µM	> 200 µM	> 200 µM		> 400 µM		> 200 µM	> 200 µM					no inhibition
C=C[C@H](O)[C@H](/C=C/C#CC#CC#CC)O[C@@H]1O[C@H](CO)[C@@H](O)[C@H](O)[C@H]1O [Compound 28]	> 200 µM	> 200 µM	190 ± 12.1 µM	> 200 µM		> 400 µM		> 200 µM	> 200 µM					
OCC(O)CC#CC#Cc1ccccc1 (stereo not shown) [Compound 21]	> 200 µM	> 200 µM	187 ± 6.63 µM	> 200 µM		> 400 µM	23%	> 200 µM	> 200 µM					
CC#CC#CC#Cc1ccccc1 [Compound 23]	70.9 ± 3.73 µM	140 ± 5.53 µM	130 ± 4.93 µM	198.8 ± 0.86 µM		> 400 µM	15.2%	168 ± 10.8 µM	123 ± 8.76 µM					

Source: publication PMC11314063, “Inhibition of DNA Topoisomerase Ι by Flavonoids and Polyacetylenes Isolated from Bidens pilosa L” (Molecules, 2024)
